Laboratory results as given in US20250344734A1, “UNSATURATED FATTY ACIDS AND THEIR USE TO MODIFY TASTE” (Firmenich Incorporated, priority 2022, published 2025).

Key:
Type in all cases: cell-based
Details in all cases: unsaturated fatty acid concentration of 200 µM, cells stimulated with known bitter agonist
T2R03 (TAS2R03) = target: T1, T2R03 (TAS2R03) (Homo sapiens, UniProt Q9NYW6); assay: FLIPR calcium assay, block of bitter agonist response, T2R03
T1 construct: expressed in transfected cells; host or cells: cells expressing a promiscuous G protein (e.g., G16g44)
T1 sequence (Q9NYW6 1-316): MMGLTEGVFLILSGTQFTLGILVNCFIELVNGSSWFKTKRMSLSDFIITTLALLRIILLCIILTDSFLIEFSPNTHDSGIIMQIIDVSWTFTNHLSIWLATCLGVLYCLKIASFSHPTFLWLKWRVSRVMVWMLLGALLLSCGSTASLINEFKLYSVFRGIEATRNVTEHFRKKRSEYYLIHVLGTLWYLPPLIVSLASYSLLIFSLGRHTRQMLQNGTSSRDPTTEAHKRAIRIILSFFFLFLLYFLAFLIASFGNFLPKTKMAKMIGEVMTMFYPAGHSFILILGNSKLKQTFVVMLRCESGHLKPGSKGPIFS
Method: (§1) Cells expressing a promiscuous […] (e.g., G16g44) were transfected with vectors encoding 18 functional bitter receptor cDNAs, with one receptor per transfection. The cells were transfected directly in 384-well format high-density plates and incubated for 28 hours. Later, cells were loaded with the Ca-specific dye Fluo4-AM. After an incubation of 60 minutes, excess dye is washed off, and cells are stimulated with a known bitter agonist for each receptor and various unsaturated fatty acids. Changes in intracellular fluorescence are recorded using a FLIPR instrument. Bitter antagonists and corresponding receptors are identified based on percentage inhibition of agonist's activity on a given receptor.
(§2) The above protocol was carried out using 16 different unsaturated fatty acids. A particular T2R receptor was identified as being antagonized by a particular unsaturated fatty acid if it triggered a >25% block of agonist's cellular response at 200 μM concentration of unsaturated fatty acid. […] Table 2 indicates the sixteen (16) compounds tested by their compound number from Table 1 above. The 18 bitter taste receptors screened are the human bitter taste receptors we named. […]

T2R04 (TAS2R04) = target: T2, T2R04 (TAS2R04) (Homo sapiens, UniProt Q9NYW5); assay: FLIPR calcium assay, block of bitter agonist response, T2R04
T2 construct: expressed in transfected cells; host or cells: cells expressing a promiscuous G protein (e.g., G16g44)
T2 sequence (Q9NYW5 1-299): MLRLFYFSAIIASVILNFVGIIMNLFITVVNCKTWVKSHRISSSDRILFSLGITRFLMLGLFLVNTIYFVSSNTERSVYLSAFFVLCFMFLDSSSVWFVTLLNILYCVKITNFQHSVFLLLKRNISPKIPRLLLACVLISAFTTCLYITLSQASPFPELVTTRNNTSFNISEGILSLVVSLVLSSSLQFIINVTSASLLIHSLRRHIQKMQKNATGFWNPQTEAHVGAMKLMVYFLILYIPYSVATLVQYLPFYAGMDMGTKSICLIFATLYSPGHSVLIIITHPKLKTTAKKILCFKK
Method: as §1, §2

T2R13 (TAS2R13) = target: T3, T2R13 (TAS2R13) (Homo sapiens, UniProt Q9NYV9); assay: FLIPR calcium assay, block of bitter agonist response, T2R13
T3 construct: expressed in transfected cells; host or cells: cells expressing a promiscuous G protein (e.g., G16g44)
T3 sequence (Q9NYV9 1-303): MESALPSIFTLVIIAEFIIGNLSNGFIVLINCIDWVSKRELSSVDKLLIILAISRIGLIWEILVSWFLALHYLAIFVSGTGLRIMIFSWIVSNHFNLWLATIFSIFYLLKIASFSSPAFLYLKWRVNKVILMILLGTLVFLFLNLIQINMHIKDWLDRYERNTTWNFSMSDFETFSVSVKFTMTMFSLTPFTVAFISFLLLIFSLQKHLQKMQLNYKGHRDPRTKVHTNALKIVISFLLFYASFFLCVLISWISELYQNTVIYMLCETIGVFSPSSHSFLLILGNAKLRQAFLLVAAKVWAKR
Method: as §1, §2

T2R16 (TAS2R16) = target: T4, T2R16 (TAS2R16) (Homo sapiens, UniProt Q9NYV7); assay: FLIPR calcium assay, block of bitter agonist response, T2R16
T4 construct: expressed in transfected cells; host or cells: cells expressing a promiscuous G protein (e.g., G16g44)
T4 sequence (Q9NYV7 1-291): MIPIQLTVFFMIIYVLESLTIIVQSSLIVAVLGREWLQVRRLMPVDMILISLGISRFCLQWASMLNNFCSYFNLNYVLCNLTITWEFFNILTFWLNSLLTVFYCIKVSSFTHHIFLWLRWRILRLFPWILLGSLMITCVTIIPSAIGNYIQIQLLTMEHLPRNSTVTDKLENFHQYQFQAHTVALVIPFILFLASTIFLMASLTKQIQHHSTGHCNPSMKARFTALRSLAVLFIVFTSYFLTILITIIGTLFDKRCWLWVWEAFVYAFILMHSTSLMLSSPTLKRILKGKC
Method: as §1, §2

T2R61 (TAS2R43) = target: T5, T2R61 (TAS2R43) (Homo sapiens, UniProt P59537); assay: FLIPR calcium assay, block of bitter agonist response, T2R61
T5 construct: expressed in transfected cells; host or cells: cells expressing a promiscuous G protein (e.g., G16g44)
T5 sequence (P59537 1-309): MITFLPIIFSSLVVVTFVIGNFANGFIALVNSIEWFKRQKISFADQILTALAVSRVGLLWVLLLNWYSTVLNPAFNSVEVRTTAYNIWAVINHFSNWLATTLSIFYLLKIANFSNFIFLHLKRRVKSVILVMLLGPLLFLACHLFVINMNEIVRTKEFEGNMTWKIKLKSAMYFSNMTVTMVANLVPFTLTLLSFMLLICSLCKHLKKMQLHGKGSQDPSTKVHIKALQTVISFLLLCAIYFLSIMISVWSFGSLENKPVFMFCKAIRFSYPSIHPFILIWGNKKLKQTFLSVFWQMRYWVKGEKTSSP
Method: as §1, §2

T2R63 (TA2R20) = target: T6, T2R63 (TA2R20) (Homo sapiens, UniProt P59543); assay: FLIPR calcium assay, block of bitter agonist response, T2R63
T6 construct: expressed in transfected cells; host or cells: cells expressing a promiscuous G protein (e.g., G16g44)
T6 sequence (P59543 1-309): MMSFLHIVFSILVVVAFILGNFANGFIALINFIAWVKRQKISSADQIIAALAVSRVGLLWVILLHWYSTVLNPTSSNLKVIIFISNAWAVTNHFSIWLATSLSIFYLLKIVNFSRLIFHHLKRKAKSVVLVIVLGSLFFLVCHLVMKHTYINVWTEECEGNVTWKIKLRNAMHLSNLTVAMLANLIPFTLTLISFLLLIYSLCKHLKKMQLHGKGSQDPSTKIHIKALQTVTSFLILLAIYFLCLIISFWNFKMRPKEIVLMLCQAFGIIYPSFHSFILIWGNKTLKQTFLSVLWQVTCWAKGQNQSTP
Method: as §1, §2

T2R67 (TAS2R50) = target: T7, T2R67 (TAS2R50) (Homo sapiens, UniProt P59544); assay: FLIPR calcium assay, block of bitter agonist response, T2R67
T7 construct: expressed in transfected cells; host or cells: cells expressing a promiscuous G protein (e.g., G16g44)
T7 sequence (P59544 1-299): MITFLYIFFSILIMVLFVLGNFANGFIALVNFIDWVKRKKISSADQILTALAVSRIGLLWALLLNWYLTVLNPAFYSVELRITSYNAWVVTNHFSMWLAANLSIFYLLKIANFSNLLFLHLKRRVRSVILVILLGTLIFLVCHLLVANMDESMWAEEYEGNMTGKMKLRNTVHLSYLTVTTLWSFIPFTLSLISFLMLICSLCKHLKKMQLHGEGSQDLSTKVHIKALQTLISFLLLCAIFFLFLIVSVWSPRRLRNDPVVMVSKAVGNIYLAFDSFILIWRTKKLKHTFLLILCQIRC
Method: as §1, §2

T2R71 (TAS2R41) = target: T8, T2R71 (TAS2R41) (Homo sapiens, UniProt P59536); assay: FLIPR calcium assay, block of bitter agonist response, T2R71
T8 construct: expressed in transfected cells; host or cells: cells expressing a promiscuous G protein (e.g., G16g44)
T8 sequence (P59536 1-307): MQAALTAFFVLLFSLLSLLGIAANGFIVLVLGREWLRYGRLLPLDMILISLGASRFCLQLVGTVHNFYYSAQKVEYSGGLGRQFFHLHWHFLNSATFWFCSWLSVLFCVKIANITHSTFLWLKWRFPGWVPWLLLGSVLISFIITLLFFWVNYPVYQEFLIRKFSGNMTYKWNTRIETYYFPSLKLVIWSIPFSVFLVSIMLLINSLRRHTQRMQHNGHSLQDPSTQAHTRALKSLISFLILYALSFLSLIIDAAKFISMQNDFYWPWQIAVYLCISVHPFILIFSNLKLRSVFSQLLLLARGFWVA
Method: as §1, §2

Which “percentage block of cellular response over baseline, 03” value (T2R03 (TAS2R03)) does the source give for `CCCCC/C=C/C(=O)O` [Compound 103] here?
The value was greater than 30%.

And the “percentage block of cellular response over baseline, 04” value (T2R04 (TAS2R04))?
The value was greater than 99%.

And the “percentage block of cellular response over baseline, 13” value (T2R13 (TAS2R13))?
The value was greater than 30%.

What about the “percentage block of cellular response over baseline, 16” value (T2R16 (TAS2R16)) of the same compound?
The value was greater than 25%.

What about the “percentage block of cellular response over baseline, 61” value (T2R61 (TAS2R43)) of the same compound?
Its value is greater than 85%.

And the “percentage block of cellular response over baseline, 63” value (T2R63 (TA2R20))?
The value was 30%.

And the “percentage block of cellular response over baseline, 67” value (T2R67 (TAS2R50))?
The value was 30%.

And the “percentage block of cellular response over baseline, 71” value (T2R71 (TAS2R41))?
The value was greater than 30%.
